Measured values: paper PMC9612231, “Antileishmanial Anthracene Endoperoxides: Efficacy In Vitro, Mechanisms and Structure-Activity Relationships” (Molecules, 2022)

Assays:
[1] = test system: Leishmania tarentolae promastigotes (LtP); assay: Resazurin viability assay for LtP; format: cell-based; details: Leishmania tarentolae, 48 h, read-out: LtP IC50
Method: (§1) The influence of AcEP and their analogs (Ac) on the viability of cells was tested in Leishmania tarentolae promastigotes (LtP) and J774 macrophages (Table 2). Based on the changes of viability of the respective cell lines at different compound concentrations, IC50 values were calculated. In Table 2, the IC50 values in both cell lines were compared for the individual compounds. From the ratio of IC50 values in J774 macrophages to IC50 values in LtP, an in vitro selectivity was calculated.
LtP (strain P10 from Jena Bioscience, Jena, Germany) were cultivated according to manufacturer instructions up to passage 50 in brain heart infusion medium (37 g/L, pH 7.4) and supplemented with 5 mg/L hemin and 25,000 IU/L penicillin and 25 mg/L streptomycin in 50 mL TubeSpin bioreactors (TPP, Trasadingen. Switzerland). LtP were grown at 27 °C in an incubator (Ehret, Emmendingen, Germany) and agitated at a frequency of 0.05 s^−1. […] For experiments, LtP were used one day after passage. The cell number was calculated by measuring the optical density (OD) of the culture at 600 nm with a U-1100 photometer (Hitachi Ltd., Tokyo, Japan) and applying the formula × 10^6 cells/mL = OD600nm × 0.969 × 124 × dilution factor [53].
Assay medium of YEM (20.7 g/L yeast extract powder, 1.2 g/L K2HPO4, 0.2 g/L KH2PO4, 2.9 g/L glucose, pH 7.4) and PBS (1:1, v/v), 25,000 U/L penicillin, 25 mg/L streptomycin, and 7.7 µM hemin was prepared. Aliquots of 200 µL of this medium and 2 × 10^6 LtP/mL (where required) were distributed in non-treated cell culture 96-well plates. Compounds (dissolved in DMSO) were added with starting concentrations of 25 µM (Pen) or 200 µM (AcEP/Ac), and then, serial dilutions were carried out resulting in a set of concentrations (25, 5, 1, 0.2, 0.04, and 0.008 µM) or (200, 40, 8, 1.6, 0.32, and 0.064 µM). For each compound concentration, at least triplicates on each plate were performed. After incubation of the plates at 27 °C for 48 h, 50 µL of resazurin solution (final concentration in wells 20 µM) was added to each well and after 4 h of incubation, the fluorescence was measured at 560 nm excitation and 590 nm emission using a plate reader (Perkin Elmer EnSpire, Rodgau, Germany) (adapted from). Combination assays for viability in the presence of PIH and NAC were performed the same way. […] All tests were repeated at least on four different weeks of cultivation.
(§2) Calculations were carried out using Microsoft Excel 2016 (Microsoft). The graphs were created using Origin 6.1 (OriginLab Corporation, Northampton, MA, USA). For all groups of experimental data, mean and standard deviation (SD) were calculated. Statistically significant differences between groups of sample data were identified by unpaired two-tailed Student’s t-test. Differences on the level of p < 0.05 were considered significant. The number of replicates is indicated at the respective figures/tables. The half-maximal inhibitory concentrations (IC50) were determined from non-linear concentration-response curves using a four-parameter logistic model and expressed as the mean ± SD.

J774 macrophages = assay: Resazurin viability assay for J774 macrophages; format: cell-based, murine; details: Mus musculus, J774, 48 h, read-out: J774 IC50, resazurin viability, endpoint 48 h, 10^5 J774 cells/mL, mean ± SD of 4–8 experiments
Method: as §1
The murine macrophage cell line J774A.1 (ATCC, TIB-67™, Wesel, Germany) was cultivated up to passage 30 in DMEM (high glucose, 3.7 g/L NaHCO3, pH 7.4) with 25,000 IU/L penicillin, 25 mg/L streptomycin, and 10% FCS (heat-inactivated) in 50 mL TubeSpin bioreactors. J774 cells were incubated at 37 °C and 5% CO2 on a roller culture apparatus (5 rpm) in a Heraeus Cytoperm 8080 incubator (Thermo Electron Corp., Vienna, Austria). To determine the cell count, the cell suspension was re-suspended and diluted 1:2 with phosphate-buffered saline (PBS): 137 mM NaCl, 1.4 mM KH2PO4, 4.3 mM Na2HPO4, and 2.7 mM KCl, pH 7.4. After fixation of the cells by mixing the cell suspension 1:1 with a formaldehyde solution (2%, v/v), aliquots of the resulting suspension were transferred into a standard Neubauer chamber (VWR, Austria) and counted manually using a light microscope (Motic BA310, Vienna, Austria) at a magnification of 40 times. J774 cells were passaged twice a week in a ratio of 1:10.
DMEM containing 25,000 U/L penicillin, 25 mg/L streptomycin, 10% FCS, and 1 × 10^5 J774/mL was prepared. This mixture (200 µL) was distributed in cell culture-treated 96-well plates, except the control wells which contained only DMEM. The cells were incubated for 24 h at 37 °C and 5% CO2 to allow attachment. Afterwards the medium and non-adherent cells were removed by washing with PBS, and then, 200 µL DMEM was added to attached cells. Compounds dissolved in DMSO were added in starting concentrations of 25 µM (Pen) or 200 µM (AcEP/Ac), and then, serial dilutions were carried out resulting in the same concentration steps as listed for LtP. For each compound concentration triplicates on each plate were performed. […], 50 µL of resazurin solution (final concentration 20 µM) was added, and after 4 h of incubation, the fluorescence was measured at 560 nm excitation and 590 nm emission using a plate reader (Perkin Elmer EnSpire, Rodgau, Germany). All tests were repeated at least on four different weeks of cultivation.
as §2

[2] = test system: LtP, axenic Leishmania tarentolae amastigotes and Leishmania donovani promastigotes; parameters: method as in PMID 29996524; details: read-out: IC50 in viability tests; cited from earlier work

Row | Compound | IC50 [1] | IC50 (J774 macrophages) | IC50 [2]
1 | c1ccc2cc3ccccc3cc2c1 [Ac, anthracene] | > 200 µM | > 200 µM | > 100 µM
2 | O=C1c2ccccc2C(=O)c2ccccc21 [anthraquinone, reference compound] | – | – | > 100 µM
